Data: paper PMC5552358, “Imidazoquinoxaline anticancer derivatives and imiquimod interact with tubulin: Characterization of molecular microtubule inhibiting mechanisms in correlation with cytotoxicity” (PLoS ONE, 2017)

Legend:
[1] = target: T1, TLR7 (Mus musculus, UniProt P58681); test: NF-kB reporter HEK293 cells expressing murine TLR7 (agonism; lowest active concentration); format: cell-based
T1 construct: HEK-Blue-mTLR7 reporter cells
T1 sequence (P58681 27-1050): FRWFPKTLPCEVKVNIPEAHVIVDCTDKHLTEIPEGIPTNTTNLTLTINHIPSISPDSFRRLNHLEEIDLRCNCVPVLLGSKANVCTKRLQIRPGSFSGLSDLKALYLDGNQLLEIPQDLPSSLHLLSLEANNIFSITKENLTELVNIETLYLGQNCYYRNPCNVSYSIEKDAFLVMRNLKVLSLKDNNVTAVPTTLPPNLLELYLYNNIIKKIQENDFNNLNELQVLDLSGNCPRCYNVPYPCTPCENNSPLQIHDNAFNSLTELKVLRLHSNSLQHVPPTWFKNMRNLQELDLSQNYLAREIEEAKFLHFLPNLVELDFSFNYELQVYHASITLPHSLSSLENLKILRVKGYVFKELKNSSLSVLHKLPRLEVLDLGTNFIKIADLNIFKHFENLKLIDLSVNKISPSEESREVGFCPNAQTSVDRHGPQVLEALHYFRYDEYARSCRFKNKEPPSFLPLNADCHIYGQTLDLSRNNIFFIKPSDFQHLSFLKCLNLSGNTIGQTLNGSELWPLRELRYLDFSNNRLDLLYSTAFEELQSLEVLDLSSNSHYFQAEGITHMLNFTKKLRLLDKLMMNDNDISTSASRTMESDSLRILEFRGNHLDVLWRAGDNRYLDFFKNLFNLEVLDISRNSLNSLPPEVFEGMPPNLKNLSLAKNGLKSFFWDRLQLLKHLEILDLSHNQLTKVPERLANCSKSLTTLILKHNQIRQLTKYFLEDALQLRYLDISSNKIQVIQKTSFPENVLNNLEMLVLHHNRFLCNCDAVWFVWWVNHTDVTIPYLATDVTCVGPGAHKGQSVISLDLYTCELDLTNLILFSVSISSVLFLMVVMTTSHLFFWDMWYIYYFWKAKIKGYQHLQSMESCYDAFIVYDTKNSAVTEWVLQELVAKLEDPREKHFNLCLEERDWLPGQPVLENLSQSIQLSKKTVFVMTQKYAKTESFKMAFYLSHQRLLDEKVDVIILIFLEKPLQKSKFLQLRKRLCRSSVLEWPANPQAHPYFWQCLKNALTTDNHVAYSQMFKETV

[2] = target: T2, TLR7 (Homo sapiens, UniProt Q9NYK1); test: NF-kB reporter HEK293 cells expressing human TLR7 (agonism; lowest active concentration); format: cell-based
T2 construct: HEK-Blue-hTLR7 reporter cells
T2 sequence (Q9NYK1 27-1049): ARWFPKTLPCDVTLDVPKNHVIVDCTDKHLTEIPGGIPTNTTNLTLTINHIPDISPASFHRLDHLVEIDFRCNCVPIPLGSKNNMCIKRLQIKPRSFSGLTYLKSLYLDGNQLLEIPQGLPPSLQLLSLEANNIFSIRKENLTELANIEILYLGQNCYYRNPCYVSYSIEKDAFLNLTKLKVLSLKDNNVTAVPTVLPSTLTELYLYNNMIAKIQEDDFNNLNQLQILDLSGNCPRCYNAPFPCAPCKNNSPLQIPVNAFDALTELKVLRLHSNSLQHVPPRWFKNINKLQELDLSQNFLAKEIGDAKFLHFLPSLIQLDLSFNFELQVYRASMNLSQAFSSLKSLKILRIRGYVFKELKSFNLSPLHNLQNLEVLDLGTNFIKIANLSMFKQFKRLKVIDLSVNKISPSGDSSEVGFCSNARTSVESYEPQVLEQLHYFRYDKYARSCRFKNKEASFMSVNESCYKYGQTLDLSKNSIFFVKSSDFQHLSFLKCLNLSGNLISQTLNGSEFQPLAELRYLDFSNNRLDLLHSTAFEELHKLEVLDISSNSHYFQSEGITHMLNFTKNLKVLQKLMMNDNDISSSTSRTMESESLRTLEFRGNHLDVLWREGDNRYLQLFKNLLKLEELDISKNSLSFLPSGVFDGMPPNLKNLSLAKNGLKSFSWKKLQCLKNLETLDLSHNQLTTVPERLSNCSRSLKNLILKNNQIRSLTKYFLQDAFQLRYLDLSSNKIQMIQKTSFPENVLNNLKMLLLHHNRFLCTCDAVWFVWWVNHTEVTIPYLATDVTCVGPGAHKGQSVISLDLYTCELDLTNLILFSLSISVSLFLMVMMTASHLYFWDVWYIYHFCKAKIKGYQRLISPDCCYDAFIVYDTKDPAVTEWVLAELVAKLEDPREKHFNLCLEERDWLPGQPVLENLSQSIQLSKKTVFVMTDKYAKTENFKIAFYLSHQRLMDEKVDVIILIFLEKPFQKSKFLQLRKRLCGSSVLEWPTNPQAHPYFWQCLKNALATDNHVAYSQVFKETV

SMILES: CC(C)Cn1cnc2c(N)nc3ccccc3c21 [imiquimod]
- NF-kB reporter HEK293 cells expressing murine TLR7 (agonism); lowest active conce [1]: 4.16 µM
- NF-kB reporter HEK293 cells expressing human TLR7 (agonism); lowest active concen [2]: 4.16 µM
